Where two headings read alike, the source gives them in different places.
Key:
[1] = Viability of MRC-5 normal lung fibroblasts (MTT assay); format: cell-based; settings: human
Experimental: (§1) To quantify cell death, around the time when significant and characteristic morphological changes took place, cells were pulse-labeled for 10 minutes with [^3H]thymidine to measure DNA activity as described elsewhere [Tomono, M. and Kiss, Z. (1995), “Ethanol enhances the stimulatory effects of insulin and insulin-like growth factor-I on DNA synthesis in NIH 3T3 fibroblasts,” Biochem. Biophys. Res. Commun. 208, 63-67]. Also, cells were collected as suspensions using trypsin, an established method in cell biology, followed by re-plating of cells in fresh tissue culture medium. If no viable cells were obtained after one week in culture, it meant that the cells at the time of re-plating were dead. Survival values obtained with untreated cells were considered 100%. For the determination of relative number of viable cells after treatments, in most cases the MTT assay was used. This calorimetric assay is based on the ability of living cells, but not dead cells, to reduce 3-(4,5-dimethyl thiazol-2-yl)-2,5-diphenyltetrazolium bromide [Carmichael, J, De Graff, W. G., Gazdar, A. F., Minna, J. D. and Mitchell, J. B. (1987), “Evaluation of tetrazolium-based semi-automated calorimetric assay: Assessment of chemosensitivity testing,” Cancer Res. 47, 936-942]. For this assay, cells were plated in 96-well plates, and the MTT assay was performed both in untreated and treated cell cultures. The MTT assay also was performed at the start of treatments to allow assessment of proliferation rates in the control and treated cell cultures.
(§2) The MRC-5 cell line is derived from normal lung tissue of a […] fetus. MRC-5 cells were maintained and treated in Eagles Medium with Hanks' BSS containing 10% fetal bovine serum. The T47D cells were maintained and treated in RPMI 1640 medium supplemented with 0.2 IU bovine insulin and 10% fetal bovine serum. The CaOV-3 human ovarian cancer cells were cultured in Dulbecco's modified Eagle's medium containing 10% fetal bovine serum. The cells were seeded in 96-well plates either at 10,000 cells per well or 30,000 cells per well to examine the antiproliferative and cytotoxic effects of various CC compounds, respectively. The cells were incubated for 24 hours, then the medium was changed followed by the treatments of cultures 2 hours after the medium change. At this point, cell cultures seeded at 10,000 cells per well and 30,000 cells per well were 25-35% and 80-90% confluent, respectively. Incubations were continued for 72 hours followed by the MTT assay. The data, shown in TABLE 2, indicate the inhibitory concentrations of CC compounds (IC50) required for 50% decrease in the number of viable cells. These numbers are calculated from the mean of 4 incubations in one experiment (the experiment was repeated once with similar results).

MRC-5 cells = assay: as above; format: cell-based; settings: Homo sapiens, MRC5; 10,000 cells per well (25-35% confluent), 72 hours, MTT; read-out: IC50 values, Antiproliferative, MRC-5
Experimental: as §1, §2

T47D cells = assay: Viability of T47D breast cancer cells; format: cell-based, human; settings: Homo sapiens, T47D, 72 hours, MTT
Experimental: as §1
About 40% confluent cultures of T47D cells, cultured in 12-well plates in RPMI 1640 medium supplemented with 0.2 IU bovine insulin and 10% FBS, were either untreated (FIG. 4A), or were treated with 100 μM CCDTHT (CCompound3) for 72 hours (FIG. 4B).
(§3) NIH3T3, T47D, A-431, HT-29, and MEL-28 cells were cultured as indicated earlier. CaOV-3 human ovarian cancer cells were cultured in DMEM containing 10% FBS. ZR-75-1 human estrogen receptor-positive breast cancer cells were maintained in RPMI 1640 medium supplemented with 10% FBS. HTB-157 human fetal fibroblasts, MEL-24 human malignant melanoma cells, Hep G2 human hepatoblastoma cells, and CaCO-2 human colon adenocarcinoma cells were maintained in Eagles's MEM containing 10% FBS. MB-231 human estrogen receptor-negative breast cancer cells were maintained in Leibovitz's L-15 medium supplemented with 10% FBS. Cells were seeded into 96-well plates and treated at ˜70-90% confluency. Two hours prior to treatments the medium was changed for fresh 10% serum medium, and then the cells were incubated for 10 days in the absence (□) or presence of 50 μM CCDTHT ? or 100 μM CCDTHT (▪). The medium was changed and the cells were re-treated on days 3 and 6. The MTT assay was used to determine cell viability on day 10. The data, shown in FIG. 6, are the mean±std. dev. of 8 incubations in one experiment.
as §2, with “respectively.” for “respectively. Incubations were continued for 72 hours followed by the MTT assay. The data, shown in TABLE 2, indicate the inhibitory concentrations of CC compounds (IC50) required for 50% decrease in the number of viable cells. These numbers are calculated from the mean of 4 incubations in one experiment (the experiment was repeated once with similar results).”

CaOV-3 cells = assay: Viability of CaOV-3 ovarian cancer cells (MTT assay); format: cell-based, human; settings: Homo sapiens, Caov-3, 72 hours, MTT
Experimental: as §1
as §3, with “experiment. (The experiment was repeated twice with similar results).” for “experiment.”
as §2, with “results). […]” for “results).”

MCF-7 cells = assay: Viability of MCF-7 breast cancer cells; format: cell-based, human; settings: 2 mM Etn + 100 μM CCDTHT, 72 hours, MTT
Experimental: as §1
About 50% confluent cultures of MCF-7 cells, cultured in 12-well plates in Dulbecco's modified Eagle's medium (DMEM) supplemented with 10% FBS, were either untreated (FIG. 3A), or were treated with 100 μM CCDTHT (CCompound3) for 72 hours (FIG. 3B). […] This experiment was repeated three times with similar results. In some experiments, cells from the CCDTHT-treated cultures were seeded into 96-well plates, and the MTT assay was performed 96 hours later to test for viable cells.
The NIH 3T3 (normal) mouse fibroblast, A431 human epidermoid adenocarcinoma, and MCF-7 human breast cancer cells were cultured in DMEM medium containing 10% FBS. The MEL-28 human melanoma cells were cultured in MEM medium containing 10% FBS. The HT-29 human colon adenocarcinoma cells were cultured in McCoy's 5a medium containing 10% FBS. The A549 human lung carcinoma cells were maintained in Ham's F12K medium containing 10% FBS. Cells were seeded into 96-well plates and treated at ˜70-90% confluency. Two hours before treatments the medium was changed for fresh 10% serum medium, and then the cells were incubated for 72 hours in the presence of 0-200 μM of CCompound1 (●) or CCompound3 (CCDTHT) (▴), as indicated. The MTT assay was used to determine cell viability after treatments. The values, shown in FIGS. 5A-5F and expressed as percent decrease in viability compared to the untreated control cells, are the mean±std. dev. of 8 incubations in one experiment. Similar results were obtained in another experiment.
NIH 3T3, AN3CA, HT-29, MEL-28, and MCF-7 cells were cultured as described earlier. Cells were seeded into 96-well plates; when cells were ˜80-90% confluent, the medium was changed for fresh 10% serum-containing medium, followed by incubations for 72 hours in the absence (□) or presence of 100 μM CCDTHT ? , 2 mM ethanolamine (Etn) ? , or 100 μM CCDTHT+2 mM Etn (▪). The MTT assay was used to determine cell viability. […]

[2] = MRC-5 normal lung fibroblasts, 30,000 cells per well (80-90% confluent), 72 hours, MTT, read-out: IC50 values, Cytotoxic, MRC-5
[3] = 10,000 cells per well (25-35% confluent), read-out: IC50 values, Antiproliferative, T47D
[4] = 30,000 cells per well (80-90% confluent), read-out: IC50 values, Cytotoxic, T47D
[5] = 10,000 cells per well (25-35% confluent), read-out: IC50 values, Antiproliferative, CaOV-3
[6] = 30,000 cells per well (80-90% confluent), read-out: IC50 values, Cytotoxic, CaOV-3

| Compound | IC50 (T47D cells; [3]) [µM] | IC50 (CaOV-3 cells; [5]) [µM] | IC50 at 72 h [1, 2] [µM] | IC50 (MRC-5 cells) [µM] | IC50 (T47D cells; [4]) [µM] | IC50 (CaOV-3 cells; [6]) [µM] | IC50 at 72 h [1] [µM] | effect of Etn on CCDTHT-induced reduction in cell viability, MCF-7 (MCF-7 cells) |
| --- | --- | --- | --- | --- | --- | --- | --- | --- |
| CC[N+](C)(C)CC/C=C1/c2ccccc2Sc2ccc(C)cc21 [CCcompound22, N,N-Dimethyl-N-ethyl-3-(2-methyl-9H-thioxanthen-9-ylidene)-propane-1-aminium iodide] | 65 | 61 | 215 | 140 | 65 | 36 | – | – |
| C=CC[N+](CC)(CC)CC/C=C1/c2ccccc2Sc2ccc(C)cc21.[Br-] [CCcompound26, N,N-diethyl-N-allyl-3-(2-methyl-9H-thioxanthen-9-ylidene)-propane-1-aminium-bromide] | 11 | 57 | – | 86 | 8 | 59 | 98 | – |
| C=CC[N+](C)(C)CC/C=C1/c2ccccc2Sc2ccc(C)cc21 [CCcompound24, N,N-Dimethyl-N-allyl-3-(2-methyl-9H-thioxanthen-9-ylidene)-propane-1-aminium bromide] | 56 | 69 | – | 113 | 59 | 29 | 207 | – |
| NCCO [Etn, ethanolamine, reference compound] | – | – | – | – | – | – | – | clearly prevented |
| Cc1ccc2c(c1)/C(=C\CC[N+](C)(C)C)c1ccccc1S2 [CCcompound21, N,N,N-trimethyl-3-(2-methyl-9H-thioxanthen-9-ylidene)-propane-1-aminium iodide] | 76 | 32 | 164 | 113 | 59 | 29 | – | – |

Continued by falling IC50 (T47D cells; [3]), values first:

| IC50 (T47D cells; [3]) [µM] | IC50 (CaOV-3 cells; [5]) [µM] | Compound | IC50 at 72 h [1, 2] [µM] | IC50 (MRC-5 cells) [µM] | IC50 (T47D cells; [4]) [µM] | IC50 (CaOV-3 cells; [6]) [µM] | IC50 at 72 h [1] [µM] | effect of Etn on CCDTHT-induced reduction in cell viability, MCF-7 (MCF-7 cells) |
| --- | --- | --- | --- | --- | --- | --- | --- | --- |
| 48 | 14 | CC[N+](C)(CC)CC/C=C1/c2ccccc2Sc2ccc(C)cc21 [CCcompound23, N,N-Diethyl-N-methyl-3-(2-methyl-9H-thioxanthen-9-ylidene)-propane-1-aminium iodide] | 163 | 139 | 38 | 32 | – | – |
| 18 | 47 | CC[N+](CC)(CC)CC/C=C1/c2ccccc2Sc2ccc(C)cc21 [CCcompound25, N,N,N-triethyl-3-(2-methyl-9H-thioxanthen-9-ylidene)-propane-1-aminium-iodide] | 123 | 118 | 39 | 66 | – | – |

Reference: patent US7943606B2, “Compositions and methods to control abnormal cell growth” (CanCure Laboratories, LLC, priority 2005, dated 2011)
